Laboratory results as given in patent EP0324390A2, “Nigericin derivatives, method for their preparation, compositions containing them and use of these compositions” (priority 1988, dated 1989).
≈ marks a conversion by molar mass, not a printed value.

Experiments:
Type in all cases: cell-based
Testviren = test: Antiviral activity in cell culture (CPE, HeLa or Vero cells); details: cell cultures infected with test viruses; qualitative statement
Staph. aureus (285) = test: Agar dilution test according to Lorian (antibacterial activity)
Method: (§1) Die antibakterielle Wirksamkeit der erfindungsgemäßen Verbindungen wurde im Agar-Verdünnungstest nach Lorian (Antibiotics in Laboratory Medicine, Williams & Wilkins, Baltimore/London, 1980) bestimmt. Dabei wurden die Präparate in einer geometrischen Verdünnungsreihe mit dem Faktor 2 in Müller Hinton Agar verdünnt. Eine Petrischale enthielt nur Müller Hinton Agar und diente zur Kontrolle des Bakterienwachstums. Die Petrischalen wurden dann mit einem Denley-Multipoint-Inokulator, welcher 0,6 ul einer 1 : 100 verdünnten 18-Stunden-Kultur der Testbakterien übertrug, mit den entsprechenden Testbakterien beimpft. Nach 16 bis 18 Stunden Inkubation bei 37^. C wurden die Petrischalen makroskopisch auf Bakterienwachstum untersucht.
(§2) Die niedrigste Konzentration der erfindungsgemäßen Verbindungen, welche das Bakterienwachstum noch vollständig verhinderte, wurde als MIC (Minimum Inhibitory Concentration) angenommen.
(§3) In Tabelle 4 ist die Wirkung (Angabe des MIC in µg/ml) von verschiedenen erfindungsgemäßen Verbindungen gegen folgende Bakterien aufgeführt: • Staph. aureus (SG 511), Staph. aureus (285), Staph. aureus (503), Strept. pyogenes (308 A), Strept pyogenes (77 A), Strept. faecium (D).

Staph. aureus (503) = test: as above
Method: as §1, §2, §3

Staph. aureus (SG 511) = test: as above
Method: as §1, §2, §3

Strept. faecium (D) = test: as above
Method: as §1, §2, §3

Strept. pyogenes (308 A) = test: as above
Method: as §1, §2, §3

Strept. pyogenes (77 A) = test: as above
Method: as §1, §2, §3

E. coli (DC 2) = test: Antibacterial activity against gram-negative bacteria; details: Escherichia coli, read-out: MHK
Method: as §1, §2
(§4) Überraschend zeigen die Dicarbonsäure-Addukte des Nigericins auch eine Wirkung gegen gramnegative Bakterien. So besitzt beispielsweise die Substanz aus Beispiel 32 gegen E. coli eine MHK von 0,55 µg/ml, gegen E. coli (DC 2) eine MHK von 25,0 µg/ml und gegen Entrob. Cloacae (1321 E) eine MHK von 250 µg/ml.

E. coli = test: as above; details: Escherichia coli, read-out: MHK
Method: as §1, §2, §4

Entrob. Cloacae (1321 E) = test: as above; details: Enterobacter cloacae, read-out: MHK
Method: as §1, §2, §4

[1] = Müller Hinton Agar, 16 to 18 h at 37 C, lowest concentration fully preventing growth

SMILES | antivirale Wirkung (Testviren) | MIC (Staph. aureus (285); Staphylococcus aureus) | MIC (Staph. aureus (503); Staphylococcus aureus) | MIC (Staph. aureus (SG 511); Staphylococcus aureus) | MIC (Strept. faecium (D); Enterococcus faecium) | MIC (Strept. pyogenes (308 A); Streptococcus pyogenes) | MIC (Strept. pyogenes (77 A); Streptococcus pyogenes) | MIC (Staph. aureus (285); [1]) | MIC (Staph. aureus (503); [1]) | MIC (Staph. aureus (SG 511); [1]) | MIC (Strept. faecium (D); [1]) | MIC (Strept. pyogenes (308 A); [1]) | MIC (Strept. pyogenes (77 A); [1]) | MIC (E. coli (DC 2)) | MIC (E. coli) | MIC (Entrob. Cloacae (1321 E))
CO[C@@H]1C[C@@H](C[C@H]2CC[C@H](C)[C@H]([C@@H](C)C(=O)O)O2)O[C@]2(O[C@](C)([C@H]3CC[C@@](C)([C@@H]4O[C@@H]([C@H]5O[C@@](O)(CO)[C@H](C)C[C@@H]5C)C[C@@H]4C)O3)C[C@H]2C)[C@@H]1C [Beispiel 1, Nigericin] | ausgezeichnete antivirale Wirkung |  |  |  |  |  |  |  |  |  |  |  |  |  |  | 
COC1CC(CC2CCC(C)C(C(C)C(=O)O)O2)OC2(OC(C)(C3CCC(C)(C4OC(C5OC(COS(C)(=O)=O)(OC)C(C)CC5C)CC4C)O3)CC2C)C1C (centres unmarked) [Beispiel 20] |  | 25 µg/mL (≈ 30.6 µM) | 12.5 µg/mL (≈ 15.3 µM) | 25 µg/mL (≈ 30.6 µM) | 25 µg/mL (≈ 30.6 µM) | 6.25 µg/mL (≈ 7.65 µM) | 6.25 µg/mL (≈ 7.65 µM) |  |  |  |  |  |  |  |  | 
COC1CC(CC2CCC(C)C(C(C)C(=O)O)O2)OC2(OC(C)(C3CCC(C)(C4OC(C5OC(O)(COC(=O)c6ccco6)C(C)CC5C)CC4C)O3)CC2C)C1C (centres unmarked) [Beispiel 8] |  |  |  |  |  |  |  | 0,391 µg/ml | 0,195 µg/ml | 0,195 µg/ml | 0,391 µg/ml | 0,013 µg/ml | 0,013 µg/ml |  |  | 
CCOC1(CO)OC(C2CC(C)C(C3(C)CCC(C4(C)CC(C)C5(OC(CC6CCC(C)C(C(C)C(=O)O)O6)CC(OC)C5C)O4)O3)O2)C(C)CC1C (centres unmarked) [Beispiel 17] |  |  |  |  |  |  |  | 1,56 µg/ml | 0,78 µg/ml | 1,56 µg/ml | 1,56 µg/ml | 0,098 µg/ml | 0,098 µg/ml |  |  | 
COC1CC(CC2CCC(C)C(C(C)C(=O)O)O2)OC2(OC(C)(C3CCC(C)(C4OC(C5OC(CO)(OC)C(C)CC5C)CC4C)O3)CC2C)C1C (centres unmarked) [Beispiel 16] |  |  |  |  |  |  |  | 1,56 µg/ml | 1,56 µg/ml | 1,56 µg/ml | 3,13 µg/ml | 0,39 µg/ml | 0,39 µg/ml |  |  | 
COC1CC(CC2CCC(C)C(C(C)C(=O)O)O2)OC2(OC(C)(C3CCC(C)(C4OC(C5OC(O)(COC(=O)CCCC(=O)O)C(C)CC5C)CC4C)O3)CC2C)C1C (centres unmarked) [Beispiel 32] |  | 0.39 µg/mL (≈ 0.465 µM) | 0.39 µg/mL (≈ 0.465 µM) | 0.39 µg/mL (≈ 0.465 µM) | 0.39 µg/mL (≈ 0.465 µM) |  |  |  |  |  |  |  |  | 25 µg/mL (≈ 29.8 µM) | 0.55 µg/mL (≈ 0.655 µM) | 250 µg/mL (≈ 298 µM)
COC1CC(CC2CCC(C)C(C(C)C(=O)O)O2)OC2(OC(C)(C3CCC(C)(C4OC(C5OC(O)(COC(=O)Cc6ccccc6)C(C)CC5C)CC4C)O3)CC2C)C1C (centres unmarked) [Beispiel 7] |  |  |  |  |  |  |  | 0,391 µg/ml | 0,195 µg/ml | 0,195 µg/ml | 0,391 µg/ml | 0,004 µg/ml | 0,004 µg/ml |  |  | 
COC1CC(CC2CCC(C)C(C(C)C(=O)O)O2)OC2(OC(C)(C3CCC(C)(C4OC(C5OC(O)(COC(=O)c6cccs6)C(C)CC5C)CC4C)O3)CC2C)C1C (centres unmarked) [Beispiel 9] |  |  |  |  |  |  |  | 0,195 µg/ml | 0,049 µg/ml | 0,049 µg/ml | 0,195 µg/ml | 0,007 µg/ml | 0,007 µg/ml |  |  | 
COC1CC(CC2CCC(C)C(C(C)C(=O)O)O2)OC2(OC(C)(C3CCC(C)(C4OC(C5OC(O)(COS(C)(=O)=O)C(C)CC5C)CC4C)O3)CC2C)C1C (centres unmarked) [Beispiel 2] |  |  |  |  |  |  |  | 0,049 µg/ml | 0,049 µg/ml | 0,098 µg/ml | 0,195 µg/ml | 0,004 µg/ml | 0,013 µg/ml |  |  | 
COC1CC(CC2CCC(C)C(C(C)C(=O)O)O2)OC2(OC(C)(C3CCC(C)(C4OC(C5OC(O)(COC(=O)Nc6ccccc6)C(C)CC5C)CC4C)O3)CC2C)C1C (centres unmarked) [Beispiel 12] |  |  |  |  |  |  |  | 3,13 µg/ml | 0,78 µg/ml | 0,781 µg/ml | 1,56 µg/ml | 0,098 µg/ml | 0,098 µg/ml |  |  | 
COC1CC(CC2CCC(C)C(C(C)C(=O)O)O2)OC2(OC(C)(C3CCC(C)(C4OC(C5OC(O)(COC(=O)COc6ccccc6)C(C)CC5C)CC4C)O3)CC2C)C1C (centres unmarked) [Beispiel 3] |  |  |  |  |  |  |  | 0,391 µg/ml | 0,391 µg/ml | 0,391 µg/ml | 0,781 µg/ml | 0,049 µg/ml | 0,049 µg/ml |  |  | 
COC1CC(CC2CCC(C)C(C(C)C(=O)[O-])O2)OC2(OC(C)(C3CCC(C)(C4OC(C5OC(O)(COC(=O)CCC(=O)[O-])C(C)CC5C)CC4C)O3)CC2C)C1C.[Mg+2] (centres unmarked) [Beispiel 37] |  |  |  |  |  |  |  | 0,098 µg/ml | 0,049 µg/ml | 0,098 µg/ml | 0,098 µg/ml | 0,007 µg/ml | 0,007 µg/ml |  |  | 
COC1CC(CC2CCC(C)C(C(C)C(=O)O)O2)OC2(OC(C)(C3CCC(C)(C4OC(C5OC(O)(COC(=O)NCc6ccccc6)C(C)CC5C)CC4C)O3)CC2C)C1C (centres unmarked) [Beispiel 13] |  |  |  |  |  |  |  | 6,25 µg/ml | 3,13 µg/ml | 3,13 µg/ml | 12,5 µg/ml | 0,78 µg/ml | 0,39 µg/ml |  |  | 
COC1CC(CC2CCC(C)C(C(C)C(=O)[O-])O2)OC2(OC(C)(C3CCC(C)(C4OC(C5OC(O)(CO)C(C)CC5C)CC4C)O3)CC2C)C1C.[K+] (centres unmarked) [Beispiel 34] |  |  |  |  |  |  |  | 0,025 µg/ml | < 0,002 µg/ml | 0,025 µg/ml | 0,098 µg/ml | < 0,002 µg/ml | < 0,002 µg/ml |  |  | 
COC1CC(CC2CCC(C)C(C(C)C(=O)O)O2)OC2(OC(C)(C3CCC(C)(C4OC(C5OC(O)(COC(=O)CCOc6ccccc6)C(C)CC5C)CC4C)O3)CC2C)C1C (centres unmarked) [Beispiel 4] |  |  |  |  |  |  |  | 1,56 µg/ml | 0,78 µg/ml | 0,78 µg/ml | 1,56 µg/ml | 0,098 µg/ml | 0,098 µg/ml |  |  | 
